Source: US11142515B2, “Pyrazolyl-ureas as kinase inhibitors” (RESPIVERT LIMITED, priority 2014, dated 2021)

Columns and labels:
p38MAPKγ (MAPK12) = target: T1, p38MAPKγ (MAPK12) (Homo sapiens, UniProt P53778); assay: p38 MAPKγ enzyme inhibition (Z-LYTE FRET); format: biochemical; conditions: Table 2A; read-out: IC50 Values for Enzyme Inhibition p38 MAPKγ
T1 construct: purchased Life Technologies
T1 sequence (P53778 1-367): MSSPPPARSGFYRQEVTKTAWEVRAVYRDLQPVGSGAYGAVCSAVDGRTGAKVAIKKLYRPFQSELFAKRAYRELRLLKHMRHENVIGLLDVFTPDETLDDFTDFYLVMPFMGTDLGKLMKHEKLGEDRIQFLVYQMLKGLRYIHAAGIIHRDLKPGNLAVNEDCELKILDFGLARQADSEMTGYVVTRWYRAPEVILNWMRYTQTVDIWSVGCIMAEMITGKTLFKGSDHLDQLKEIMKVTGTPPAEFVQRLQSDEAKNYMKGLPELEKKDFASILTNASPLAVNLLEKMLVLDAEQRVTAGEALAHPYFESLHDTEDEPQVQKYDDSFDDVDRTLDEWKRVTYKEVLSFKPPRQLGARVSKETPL
Outline: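 Z-LYTE read-out: after 1 h protease development, only non-phosphorylated peptide is cleaved, and the donor/acceptor (coumarin/fluorescein) ratio reports phosphorylation. Beforehand, enzyme and compound (stock concentrations 0.0012–40 μg/mL) were preincubated 2 h at RT, then the kinase reaction ran 1 h at RT with peptide and ATP (8 μM and 400 μM stocks).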

Hck = target: T2, Hck (Homo sapiens, UniProt P08631); assay: Hck enzyme inhibition (Z-LYTE FRET); format: biochemical; conditions: Table 2A
T2 construct: purchased Life Technologies
T2 sequence (P08631 22-526): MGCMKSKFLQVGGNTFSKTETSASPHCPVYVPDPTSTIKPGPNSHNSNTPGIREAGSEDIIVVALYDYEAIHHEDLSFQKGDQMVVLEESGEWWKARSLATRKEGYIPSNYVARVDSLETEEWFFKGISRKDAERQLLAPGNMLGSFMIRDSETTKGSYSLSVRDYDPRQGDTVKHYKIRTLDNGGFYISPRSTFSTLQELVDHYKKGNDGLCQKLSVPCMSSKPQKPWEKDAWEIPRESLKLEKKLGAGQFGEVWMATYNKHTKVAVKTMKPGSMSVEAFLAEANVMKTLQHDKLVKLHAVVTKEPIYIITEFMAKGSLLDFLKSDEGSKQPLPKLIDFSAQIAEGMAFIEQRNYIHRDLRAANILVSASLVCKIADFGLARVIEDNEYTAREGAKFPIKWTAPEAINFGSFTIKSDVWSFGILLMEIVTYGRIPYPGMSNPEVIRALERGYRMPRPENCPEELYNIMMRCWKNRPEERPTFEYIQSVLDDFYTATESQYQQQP
Experimental: (§1) The enzyme inhibitory activities of compounds disclosed herein were determined by FRET using synthetic peptides labelled with both donor and acceptor fluorophores (Z-LYTE, Life Technologies, Paisley, UK).
(§2) The relevant enzyme (1000 ng/mL, 1400 ng/mL or 2000 ng/mL respectively, 2.5 μL) was incubated with the test compound (either 40 μg/mL, 12 μg/mL, 4 μg/mL, 1.2 μg/mL, 0.4 μg/mL, 0.12 μg/mL, 0.04 μg/mL, 0.012 μg/mL, 0.004 μg/mL or 0.0012 μg/mL, 2.5 μL each) for 2 h at RT. The FRET peptides (8 μM, 2.5 μL), and appropriate ATP solutions (2.5 μL, 800 μM for c-Src, and 60 μM ATP for HCK and Syk) were then added to the enzyme/compound mixtures and incubated for 1 h at RT. Development reagent (protease, 5 μL) was added for 1 h prior to detection in a fluorescence microplate reader (EnVision, Perkin Elmer).
(§3) In all cases, the site-specific protease cleaves non-phosphorylated peptide only and eliminates the FRET signal. Phosphorylation levels of each reaction were calculated using the ratio of coumarin emission (donor) over fluorescein emission (acceptor), for which low ratios indicate high phosphorylation and high ratios indicate low phosphorylation levels.

c-Src = target: T3, c-Src (Homo sapiens, UniProt P12931); assay: c-Src enzyme inhibition (Z-LYTE FRET); format: biochemical; conditions: Table 2A
T3 construct: purchased Life Technologies
T3 sequence (P12931 whole entry): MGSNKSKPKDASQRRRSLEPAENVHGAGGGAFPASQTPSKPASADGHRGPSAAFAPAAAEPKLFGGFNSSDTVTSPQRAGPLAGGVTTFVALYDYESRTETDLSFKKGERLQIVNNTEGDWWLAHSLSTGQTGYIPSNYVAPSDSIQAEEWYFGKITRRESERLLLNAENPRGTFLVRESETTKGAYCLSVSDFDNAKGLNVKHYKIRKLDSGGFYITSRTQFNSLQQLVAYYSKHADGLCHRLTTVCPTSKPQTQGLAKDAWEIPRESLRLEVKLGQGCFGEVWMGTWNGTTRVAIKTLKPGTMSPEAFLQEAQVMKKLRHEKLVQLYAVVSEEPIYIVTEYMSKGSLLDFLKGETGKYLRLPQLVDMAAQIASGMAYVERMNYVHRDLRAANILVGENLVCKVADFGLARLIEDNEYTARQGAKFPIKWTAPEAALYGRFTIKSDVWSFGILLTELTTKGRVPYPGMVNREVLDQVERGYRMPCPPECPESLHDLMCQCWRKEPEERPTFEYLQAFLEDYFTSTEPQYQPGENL
Experimental: as §1, §2, §3

Syk = target: T4, Syk (Homo sapiens, UniProt P43405); assay: Syk enzyme inhibition (Z-LYTE FRET); format: biochemical; conditions: for IC50: Table 2A
T4 construct: purchased Life Technologies
Experimental: as §1, §2, §3

GSK 3α enzyme isoform = target: T5, GSK 3α enzyme isoform (Homo sapiens, UniProt P49840); assay: GSK 3α enzyme inhibition (Z-LYTE FRET); format: biochemical; conditions: for IC50: Table 2A, read-out: IC50 Values for Enzyme Inhibition GSK3α
T5 construct: purchased Life Technologies
T5 sequence (P49840 whole entry, canonical isoform): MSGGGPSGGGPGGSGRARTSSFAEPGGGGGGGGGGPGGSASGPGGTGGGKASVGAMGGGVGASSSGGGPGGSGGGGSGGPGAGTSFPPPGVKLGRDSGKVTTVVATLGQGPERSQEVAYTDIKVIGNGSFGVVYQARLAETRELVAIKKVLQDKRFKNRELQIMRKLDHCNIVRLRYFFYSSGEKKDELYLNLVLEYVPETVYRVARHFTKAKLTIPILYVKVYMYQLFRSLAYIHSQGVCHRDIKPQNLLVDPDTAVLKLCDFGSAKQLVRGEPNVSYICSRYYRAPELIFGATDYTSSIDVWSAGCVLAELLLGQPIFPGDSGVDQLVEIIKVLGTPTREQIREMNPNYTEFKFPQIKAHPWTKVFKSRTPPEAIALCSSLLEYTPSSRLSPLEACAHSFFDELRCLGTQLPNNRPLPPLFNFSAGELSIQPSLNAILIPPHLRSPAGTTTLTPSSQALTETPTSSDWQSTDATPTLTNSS
Experimental: as §1
The GSK3a protein (500 ng/mL, 2.5 μL) was incubated with the test compound (2.5 μL at either 40 μg/mL, 12 μg/mL, 4 μg/mL, 1.2 μg/mL, 0.4 μg/mL, 0.12 μg/mL, 0.04 μg/mL, 0.012 μg/mL, 0.004 μg/mL or 0.0012 μg/mL) for 2 h at RT. The FRET peptide (8 μM, 2.5 μL), which is a phosphorylation target for GSK3α, and ATP (40 μM, 2.5 μL) was then added to the enzyme/compound mixture and the resulting mixture incubated for 1 h at RT. Development reagent (protease, 5 μL) was added for 1 h prior to detection in a fluorescence microplate reader (EnVision, Perkin Elmer).
as §3

[1] = tested on: IL-8 release in d-U937 cells; assay: LPS-induced IL-8 release in d-U937 cells; format: cell-based; conditions: Homo sapiens, dU937, LPS 0.1 μg/mL 4 h
Experimental: (§4) U937 cells, a human monocytic cell line, were differentiated into macrophage-type cells by incubation with PMA (100-200 ng/mL) for 48 to 72 h. Cells were pre-incubated with final […] concentrations of test compound for 2 h and were then stimulated with LPS (0.1 μg/mL; from E. coli: O111:B4, Sigma) for 4 h. The supernatant was collected for determination of TNFα and IL-8 concentrations by sandwich ELISA (Duo-set, R&D systems). […] The relative 50% effective concentration (REC50) was determined from the resultant concentration-response curve. The inhibition of IL-8 production was calculated at each concentration of test compound by comparison with vehicle control.

[2] = tested on: TNFα release in d-U937 cells; assay: LPS-induced TNFα release in d-U937 cells; format: cell-based; conditions: Homo sapiens, dU937; read-out: LPS Induced Release TNFα REC50 (dU937); note: relative to 10 µg/mL BIRB-796
Experimental: as §4

d-U937 cells = assay: Cell viability: MTT assay in differentiated U937 cells; format: cell-based, human; conditions: 10 μg/mL
Experimental: Differentiated U937 cells were pre-incubated with each test compound (final concentration 10 μg/mL in 200 μL media indicated below) under two protocols: the first for 4 h in 5% FCS RPMI1640 media and the second in 10% FCS RPMI1640 media for 24 h. The supernatant was replaced with new media (200 μL) and MTT stock solution (10 μL, 5 mg/mL) was added to each well. After incubation for 1 h the media were removed, DMSO (200 μL) was added to each well and the plates were shaken lightly for 1 h prior to reading the absorbance at 550 nm. The percentage loss of cell viability was calculated for each well relative to vehicle (0.5% DMSO) treatment. Consequently an apparent increase in cell viability for drug treatment relative to vehicle is tabulated as a negative percentage.

| IC50 (p38MAPKγ (MAPK12)) [nM] | IC50 (Hck) [nM] | IC50 (c-Src) [nM] | IC50 (Syk) [nM] | IC50 (GSK 3α enzyme isoform) [nM] | IC50 [1] [nM] | EC50 [2] [nM] | SMILES | MTT Assay Cell viability at time point indicated in d-U937 Cells, 4 h (d-U937 cells) | MTT Assay Cell viability at time point indicated in d-U937 Cells, 24 h (d-U937 cells) | inhibitory activity against Syk (in words) (Syk) | inhibitory activity against GSK3a (in words) (GSK 3α enzyme isoform) |
| --- | --- | --- | --- | --- | --- | --- | --- | --- | --- | --- | --- |
| 112 | 59 | 154 | > 16500 | 11300 | 33.4 | 1 | Cc1cc(-n2nc(C(C)(C)C)cc2NC(=O)Nc2ccc(OCc3ccnc(Nc4cnccn4)c3)c3ccccc23)cs1 (single isomer, unassigned) [Example 31] | − (−ve and +ve indicate the value is below and above, respectively, the no significant effect threshold defined as 30% inhibition at 10 μg/mL at the time point indicated) | − (−ve and +ve indicate the value is below and above, respectively, the no significant effect threshold defined as 30% inhibition at 10 μg/mL at the time point indicated) | – | – |
| 67 | 29 | 98 | > 16700 | > 16700 | 13 | 1.6 | Cc1ccc(-n2nc(C(C)(C)C)cc2NC(=O)Nc2ccc(OCc3ccnc(Nc4cnccn4)c3)c3ccccc23)cc1 [Example 1, 1-(3-(tert-Butyl)-1-(p-tolyl)-1H-pyrazol-5-yl)-3-(4-((2-(pyrazin-2-ylamino)pyridin-4-yl)methoxy)naphthalen-1-yl)urea] | − (−ve and +ve indicate the value is below and above, respectively, the no significant effect threshold defined as 30% inhibition at 10 μg/mL at the time point indicated) | − (−ve and +ve indicate the value is below and above, respectively, the no significant effect threshold defined as 30% inhibition at 10 μg/mL at the time point indicated) | very much weaker than the Reference Compound | very much weaker than the Reference Compound |
| 222 | 66 | 144 | > 14300 | > 14300 | 8.8 | 5.5 | COCCNC(=O)c1cnc(Nc2cc(COc3ccc(NC(=O)Nc4cc(C(C)(C)C)nn4-c4ccc(C)cc4)c4ccccc34)ccn2)cn1 [Example 3] | − (−ve and +ve indicate the value is below and above, respectively, the no significant effect threshold defined as 30% inhibition at 10 μg/mL at the time point indicated) | − (−ve and +ve indicate the value is below and above, respectively, the no significant effect threshold defined as 30% inhibition at 10 μg/mL at the time point indicated) | – | – |
| 441 | 111 | 447 | > 16000 | > 4960 | 25.4 | 25.6 | Cc1ccc(-n2nc(C(C)(C)C)cc2NC(=O)Nc2ccc(OCc3ccnc(Nc4cnc(C)c(C)n4)c3)c3ccccc23)cc1 [Example 4, 1-(3-(tert-Butyl)-1-(p-tolyl)-1H-pyrazol-5-yl)-3-(4-((2-((5,6-dimethylpyrazin-2-yl)amino)pyridin-4-yl)methoxy)naphthalen-1-yl)urea] | − (−ve and +ve indicate the value is below and above, respectively, the no significant effect threshold defined as 30% inhibition at 10 μg/mL at the time point indicated) | − (−ve and +ve indicate the value is below and above, respectively, the no significant effect threshold defined as 30% inhibition at 10 μg/mL at the time point indicated) | – | – |
| 16 | < 0.48 | < 0.48 | > 15900 | 2770 | 2.4 | 2.8 | Cc1ccc(-n2nc(C(C)(C)C)cc2NC(=O)Nc2ccc(OCc3ccnc(Nc4cnc(CN)cn4)c3)c3ccccc23)cc1 [Example 5, 1-(4-((2-((5-(Aminomethyl)pyrazin-2-yl)amino)pyridin-4-yl)methoxy)naphthalen-1-yl)-3-(3-(tert-butyl)-1-(p-tolyl)-1H-pyrazol-5-yl)urea] | − (−ve and +ve indicate the value is below and above, respectively, the no significant effect threshold defined as 30% inhibition at 10 μg/mL at the time point indicated) | + (−ve and +ve indicate the value is below and above, respectively, the no significant effect threshold defined as 30% inhibition at 10 μg/mL at the time point indicated) | – | – |
| 37 | 10 | 24 | 7520 | 922 | 90.7 | 8.5 | CC(=O)NCc1cnc(Nc2cc(COc3ccc(NC(=O)Nc4cc(C(C)(C)C)nn4-c4ccc(C)cc4)c4ccccc34)ccn2)cn1 [Example 6, N-((5-((4-(((4-(3-(3-(tert-butyl)-1-(p-tolyl)-1H-pyrazol-5-yl)ureido)naphthalen-1-yl)oxy)methyl)pyridin-2-yl)amino)pyrazin-2-yl)methyl)acetamide] | − (−ve and +ve indicate the value is below and above, respectively, the no significant effect threshold defined as 30% inhibition at 10 μg/mL at the time point indicated) | − (−ve and +ve indicate the value is below and above, respectively, the no significant effect threshold defined as 30% inhibition at 10 μg/mL at the time point indicated) | – | – |
| 151 | 64 | 358 | > 15200 | > 15200 | 16.7 | 10.7 | CNC(=O)c1cnc(Nc2cc(COc3ccc(NC(=O)Nc4cc(C(C)(C)C)nn4-c4ccc(C)cc4)c4ccccc34)ccn2)cn1 [Example 7, 5-((4-(((4-(3-(3-(tert-Butyl)-1-(p-tolyl)-1H-pyrazol-5-yl)ureido)naphthalen-1-yl)oxy)methyl)pyridin-2-yl)amino)-N-methylpyrazine-2-carboxamide] | + (−ve and +ve indicate the value is below and above, respectively, the no significant effect threshold defined as 30% inhibition at 10 μg/mL at the time point indicated) | + (−ve and +ve indicate the value is below and above, respectively, the no significant effect threshold defined as 30% inhibition at 10 μg/mL at the time point indicated) | – | – |
